1 compound from article PMC8113020 (Chemistry of Heterocyclic Compounds, 2021) can be followed below.

The experiment has as its system Coxsackie B3 virus (strain Nancy). Briefly: microbe, parasite or virus in culture. The following applies: Enterovirus B, B3, Vero, 48 h, read-out: IC50 (50% inhibitory concentration). The experiment is classed as cell-based.

As to `NC(=O)c1ncn([C@@H]2O[C@H](CO)[C@@H](O)[C@H]2O)n1` [Ribavirin], the IC50 came to 56 ± 8 µM.
